{"source": "patent US20210030757A1", "about": "“METHOD OF TREATMENT AND COMPOSITIONS COMPRISING A DUAL P13K DELTA-GAMMA KINASE INHIBITOR AND A CORTICOSTEROID” (priority 2014, published 2021)", "key": {"[1]": {"tested_on": "human neutrophils from healthy volunteers", "assay": "CSE-induced IL-8 release in peripheral blood neutrophils from healthy non-smokers", "assay_type": "cell-based", "conditions": "stimulus CSE 5%, 6 h, mean ± SEM; for IC50: Homo sapiens, Neutrophil, read-out: −log IC50 (IL-8 release) (converted)", "protocol": "(§1) Neutrophils were isolated from peripheral venous blood by standard laboratory procedures. In brief, peripheral venous blood was mixed with dextran 500 at 3% (in 0.9% saline) in a proportion of 2:1. This mixture was incubated at room temperature for 30 min until erythrocytes were sedimented. The upper phase was carefully collected and added on Ficoll-Paque Histopaque 1077 (Amershan Pharmacia Biotech, Barcelona, Espana) density gradient in a proportion of 3:1. The two phases generated were centrifuged at 150 g, 4° C. for 30 min. Thus, the pellet obtained (which is consisted a mixture of neutrophils and low proportion of residual erythrocytes and traces of eosinophils and basophils) was resuspended in an erythrocyte lysis buffer (Biolegend, UK) for 5 min in ice. Cell suspension was washed two times with phosphate buffer (PBS). […] Neither purity nor viability was affected in the study's different experimental conditions.\n(§2) CSE was prepared as follows: Briefly, the smoke of a research cigarette (2R4F; Tobacco Health Research, University of Kentucky, Ky., USA) was generated by a respiratory pump (Apparatus Rodent Respirator 680; Harvard, Germany) through a puffing mechanism related to the human smoking pattern (3 puff/min; 1 puff 35 ml; each puff of 2 s duration with 0.5 cm above the filter) and was bubbled into a flask containing 25 ml of pre-warmed (37° C.) Roswell Park Memorial Institute (RPMI)-1640 culture medium. The CSE solution was sterilized by filtration through a 0.22-μm cellulose acetate sterilizing system (Corning, N.Y.). The resultant CSE solution was considered to be 100% CSE and was used for experiments within 30 min of preparation. CSE 10% corresponds approximately to the exposure associated with smoking two packs per day. The quality of the prepared CSE solution was assessed based on the absorbance at 320 nm, which is the specific absorption wavelength of peroxynitrite. Stock solutions with an absorbance value of 3.0±0.1 were used. To test for cytotoxicity from CSE, isolated neutrophils were treated with CSE concentrations of up to 5% for […].\n(§3) Isolated human neutrophils from healthy volunteers and COPD patients were incubated with Compound A (0.01 nM-100 μM) and Dexamethasone (0.1 nM-1 μM) or vehicle for 30 minutes before incubation with or without CSE 5% for 6 hours in standard cell culture conditions (37° C. and 5% CO2). Supernatants were collected to measure different inflammatory markers.\n(§4) IL-8 was measured by ELISA using a commercially available kit.\n(§5) Experiments were done in triplicate in […] three patients per experimental condition.\n(§6) Neutrophils from healthy and COPD patients were stimulated with CSE 5% in the presence of Compound A (0.01 nM-100 μM) or dexamethasone (DEX; 0.1 nM-1 μM) for 6 h and IL-8 supernatants were measured."}, "[2]": {"tested_on": "human neutrophils from COPD patients", "assay": "CSE-induced IL-8 release in peripheral blood neutrophils from COPD patients", "assay_type": "cell-based", "conditions": "stimulus CSE 5%, 6 h, mean ± SEM; for IC50: Homo sapiens, Neutrophil, read-out: −log IC50 (IL-8 release) (converted)", "protocol": "as §1, §2, §3, §4, §5, §6"}, "Balb/c mice [3]": {"tested_on": "Balb/c mice", "assay": "Chronic cigarette smoke induced cell infiltration in male Balb/c mice (BALF cells and cytokines)", "assay_type": "in vivo", "protocol": "Animals were acclimatized for seven days prior to the start of the experiment. Animals were randomly distributed to various groups based on their body weights. Mice were exposed to the mainstream smoke of 2 cigarettes from day 1 to day 11. Exposure to the smoke of each cigarette lasted for 10 min (each cigarette was completely burned in the first two minutes, followed by an air flow with animal ventilator) and were exposed for the next 20 min with fresh room air. After every second cigarette an additional break of 20 min with exposure to fresh room air was conducted. Control animals were exposed to the room air chamber. Test compound was administered by the intranasal route as suspension from day 12 to day 14 before 30 mins whole body smoke exposure. Mice were exposed to the mainstream smoke of 1 cigarette from day 12 to day 14. On day 15, 24 hours after the last cigarette smoke (CS) exposure animals were exsanguinated under anaesthesia, and the trachea was cannulated and the lungs were lavaged with 0.5 ml aliquots of heparinised PBS (1 unit/ml) four times through tracheal cannula (total volume 2 ml). Bronchioalveolar (BAL) collected was stored at 2-8° C. until assayed for total cell and differential leukocyte count. BAL fluid was centrifuged (500×g for 10 min) and the resulting cell pellet was resuspended in 0.5 ml of heparinised saline. The total number of white blood cells was determined in BAL fluid and blood using a blood cell counter and adjusted to 1×10^6 cell/ml. Differential cell count was calculated manually. Forty microliters of the cell suspension was centrifuged using cytospin 3 to prepare a cell smear. The cell smear was stained with a blood staining solution for differentiation and microscopically observed by identifying each cell according to its morphological characteristics. The number of each cell type among 300 white blood cells in the cell smear was determined and expressed as a percentage, and the number of neutrophils and macrophages in each BAL fluid were calculated. In addition BAL supernatant were analysed for various cytokinines using ELISA assay."}, "Balb/c mice [4]": {"tested_on": "Balb/c mice", "assay": "Reversal of corticosteroid insensitivity in chronic cigarette smoke induced cell infiltration in male Balb/c mice", "assay_type": "in vivo", "conditions": "Mus musculus, Macrophage, inhaled or nasal; murine chronic COPD model; intranasal; read-out: ED50 (cell count in BAL, macrophage infiltration)", "protocol": "Animals were acclimatized for seven days prior to the start of the experiment. Animals were randomly distributed to various groups based on their body weights. Mice were exposed to the mainstream smoke of 2 cigarettes from day 1 to day 11. Exposure to the smoke of each cigarette lasted for 10 min (each cigarette was completely burned in the first two minutes, followed by an air flow with animal ventilator) and were exposed for the next 20 min with fresh room air. After every second cigarette an additional break of 20 min with exposure to fresh room air was conducted. Control animals were exposed to the room air chamber. Corticosteroid, fluticasone was administered by intranasal route from day 6 to day 11 before 30 mins whole body smoke exposure. Mice were exposed to the mainstream smoke of 1 cigarette from day 12 to day 14. […] The total number of white blood cells was determined in BAL fluid and blood using a blood cell counter and adjusted to 1×10^6 cell/ml. Differential cell count was calculated manually. […] The number of each cell type among 300 white blood cells in the cell smear was determined and expressed as a percentage, and the number of neutrophils and macrophages in each BAL fluid were calculated. In addition BAL supernatant were analysed for various cytokines using ELISA assay."}, "MIF": {"tested_on": "MIF", "assay": "MIF mRNA expression in peripheral neutrophils from COPD patients (RT-PCR)", "assay_type": "cell-based, human", "conditions": "CSE 5%; Compound A exposure", "protocol": "(§7) Measurement of basal RNA expression of corticosteroid resistant mediators: Total RNA was isolated from peripheral human neutrophils from COPD patients in basal conditions and after experimental conditions. Cells were homogenized and RNA was extracted using TriPure® Isolation Reagent (Roche, Indianapolis, USA). The reverse transcription was performed in 300 ng of total RNA with TaqMan reverse transcription reagents kit (Applied Biosystems, Perkin-Elmer Corporation, CA, USA). 1.5 μl of result cDNA was amplified with specific predesigned primers (Applied Biosystems) for MIF (cat no Hs00236988), MKP-1 (cat no Hs00610256), PI3K-δ (cat n° Hs00192399), PI3Kγ (cat n° Hs00277090) and GAPDH (cat no 4310884E) as endogenous control in a 7900HT Fast Real-Time PCR System (Applied Biosystem) using Universal Master Mix (Applied Biosystems). Relative quantification of these different transcripts was determined with the 2^−ΔΔct method and normalized to control groups.\n(§8) mRNA expression of the MIF, MKP-1, PI3K-δ and PI3Kγ genes was measured in basal conditions and at the end of the experiments.\n(§9) Experiments were done in triplicate in at least three patients per experimental condition."}, "MKP-1": {"tested_on": "MKP-1", "assay": "MKP-1 mRNA expression in peripheral neutrophils from COPD patients (RT-PCR)", "assay_type": "cell-based, human", "conditions": "CSE 5%; 10 nM or 100 nM Compound A", "protocol": "as §7, §8, §9"}, "PI3Kγ": {"tested_on": "PI3Kγ", "assay": "PI3Kγ mRNA expression in peripheral neutrophils from COPD patients (RT-PCR)", "assay_type": "cell-based, human", "conditions": "CSE 5%; 10 nM or 100 nM Compound A", "protocol": "as §7, §8, §9"}, "PI3K": {"tested_on": "PI3K", "assay": "PI3K activity (PIP3 production, PI3-Kinase Activity ELISA) in neutrophils from COPD patients", "assay_type": "cell-based, human", "conditions": "Compound A 10 nM, 1 h, CSE 5% 30 min", "protocol": "Measurement of Pi3K isoforms: To measure PI3K activity, neutrophils from COPD patients were isolated and incubated with Compound A at 10 nM for 1 h. Then cells were stimulated with CSE 5% for 30 min. After cell stimulation, neutrophils were centrifuged and total protein was extracted from neutrophils. Total protein amount was measured using The Bio-Rad assay (Bio-Rad Laboratories Ltd., Herts, UK) to ensure equal amount. PI3K activity was measured using the PI3-Kinase Activity ELISA: Pico (cat. no k-1000 s, Echelon Bioscience, Salt Lake City, USA) according to the manufacturer's protocol. In brief, PI3-K reactions were run with the Class I PI3-K physiological substrate PI(4,5)P2 (PIP2). The enzyme reactions, PIP3 standards and controls were then mixed and incubated with PIP3 binding protein that is highly specific and sensitive to PIP3. This mixture was then transferred to a PIPI3-coated microplate for competitive binding. Afterwards, a peroxidase-linked secondary detector and colorimetric detection was used to detect the amount of PIP3 produced by PI3-K through comparing the enzyme reactions with a PIP3 standard curve.\nas §9"}}, "data": [{"smiles": "C[C@@H]1C[C@H]2[C@@H]3CCC4=CC(=O)C=C[C@]4(C)[C@@]3(F)[C@@H](O)C[C@]2(C)[C@@]1(O)C(=O)CO", "note": "[dexamethasone, reference compound]", "values": [{"measurement": "IC50", "setting": "[1]", "result": 14.1, "unit": "nM"}, {"measurement": "Maximal % Inhibition of IL-8 release", "setting": "[1]", "result": 83.9, "unit": "%"}, {"measurement": "IC50", "setting": "[2]", "result": 13.5, "unit": "nM"}, {"measurement": "Maximal % Inhibition of IL-8 release", "setting": "[2]", "result": "19.84 ± 11.46", "unit": "%"}]}, {"smiles": "CC(C)Oc1ccc(-c2nn([C@@H](C)c3oc4cccc(F)c4c(=O)c3-c3cccc(F)c3)c3ncnc(N)c23)cc1F", "note": "[Compound A]", "values": [{"measurement": "Macrophage count in BAL fluid", "setting": "Balb/c mice [3]; 0.003-3 mg/kg intranasal, day 12 to 14, vs disease controls", "result": "significantly reduced toward normal"}, {"measurement": "IFNγ in BALF (% inhibition)", "setting": "Balb/c mice [3]; dose 0.003 mg/kg intranasal", "result": 0, "unit": "%"}, {"measurement": "IL-6 in BALF (% inhibition)", "setting": "Balb/c mice [3]; dose 0.003 mg/kg intranasal", "result": 11, "unit": "%"}, {"measurement": "IL-12/IL-23 in BALF (% inhibition)", "setting": "Balb/c mice [3]; dose 0.003 mg/kg intranasal", "result": 0, "unit": "%"}, {"measurement": "TNFα in BALF (% inhibition)", "setting": "Balb/c mice [3]; dose 0.003 mg/kg intranasal", "result": 17, "unit": "%"}, {"measurement": "IFNγ in BALF (% inhibition)", "setting": "Balb/c mice [3]; dose 0.03 mg/kg intranasal", "result": 25, "unit": "%"}, {"measurement": "IL-6 in BALF (% inhibition)", "setting": "Balb/c mice [3]; dose 0.03 mg/kg intranasal", "result": 44, "unit": "%"}, {"measurement": "IL-12/IL-23 in BALF (% inhibition)", "setting": "Balb/c mice [3]; dose 0.03 mg/kg intranasal", "result": 0, "unit": "%"}, {"measurement": "TNFα in BALF (% inhibition)", "setting": "Balb/c mice [3]; dose 0.03 mg/kg intranasal", "result": 40, "unit": "%"}, {"measurement": "IFNγ in BALF (% inhibition)", "setting": "Balb/c mice [3]; dose 0.3 mg/kg intranasal", "result": 90, "unit": "%"}, {"measurement": "IL-6 in BALF (% inhibition)", "setting": "Balb/c mice [3]; dose 0.3 mg/kg intranasal", "result": 99, "unit": "%"}, {"measurement": "IL-12/IL-23 in BALF (% inhibition)", "setting": "Balb/c mice [3]; dose 0.3 mg/kg intranasal", "result": 100, "unit": "%"}, {"measurement": "TNFα in BALF (% inhibition)", "setting": "Balb/c mice [3]; dose 0.3 mg/kg intranasal", "result": 99, "unit": "%"}, {"measurement": "ED50", "setting": "Balb/c mice [4]", "result": 0.093, "unit": "mg/kg"}, {"measurement": "IC50", "setting": "[1]", "result": 295, "unit": "nM"}, {"measurement": "Maximal % Inhibition of IL-8 release", "setting": "[1]", "result": "97.4±5.3", "unit": "%"}, {"measurement": "IC50", "setting": "[2]", "result": 47.9, "unit": "nM"}, {"measurement": "Maximal % Inhibition of IL-8 release", "setting": "[2]", "result": 85.14, "unit": "%"}, {"measurement": "expression of MIF (mRNA)", "setting": "MIF", "result": "not significantly affected"}, {"measurement": "expression of MKP1 (mRNA)", "setting": "MKP-1", "result": "increased the expression of MKP1 near to control levels"}, {"measurement": "CSE induced PI3Kγ expression (mRNA)", "setting": "PI3Kγ", "result": "significant reduction"}, {"measurement": "PI3K activity measured as PIP3 production", "setting": "PI3K", "result": "completely suppressed"}]}]}
